Experimental findings from ChEMBL document CHEMBL4270672, “Synthesis and Biological Evaluation of Fused Tricyclic Heterocycle Piperazine (Piperidine) Derivatives As Potential Multireceptor Atypical Antipsychotics” (J Med Chem, 2018) are described below.

Data set [1] is described as follows: Half life in Sprague-Dawley rat at 10 mg/kg, po by LC-MS/MS analysis. The data set is classed as ADME, organism-based. To be noted: in vivo.
Data set [2] has as its system Rattus norvegicus. Kind of data set: Cognitive enhancing effect in Sprague-Dawley rat assessed as effect on total exploration time for familiar objects in acquisition trial at 0.03 to 0.3 mg/kg, po administered 1 hr measured for 3 mins by novel object recognition test. The data set is classed as functional, organism-based.
Data set [3] can be described thus: Acute toxicity in po dosed Kunming mouse assessed as mortality measured after 24 hrs post dose. The data set is classed as organism-based. The note with it: in vivo.
For data set [4], the target named is T1, D(2) dopamine receptor (Homo sapiens, UniProt P14416). Kind of data set: Agonist activity at dopamine D2 receptor long isoform (unknown origin) expressed in HEK293 cells assessed as induction of calcium flux at 10 uM after 60 min by calcium 4-dye based FLIPR assay relative to control. The data set is classed as functional, cell-based.
T1 sequence (P14416 whole entry, canonical isoform): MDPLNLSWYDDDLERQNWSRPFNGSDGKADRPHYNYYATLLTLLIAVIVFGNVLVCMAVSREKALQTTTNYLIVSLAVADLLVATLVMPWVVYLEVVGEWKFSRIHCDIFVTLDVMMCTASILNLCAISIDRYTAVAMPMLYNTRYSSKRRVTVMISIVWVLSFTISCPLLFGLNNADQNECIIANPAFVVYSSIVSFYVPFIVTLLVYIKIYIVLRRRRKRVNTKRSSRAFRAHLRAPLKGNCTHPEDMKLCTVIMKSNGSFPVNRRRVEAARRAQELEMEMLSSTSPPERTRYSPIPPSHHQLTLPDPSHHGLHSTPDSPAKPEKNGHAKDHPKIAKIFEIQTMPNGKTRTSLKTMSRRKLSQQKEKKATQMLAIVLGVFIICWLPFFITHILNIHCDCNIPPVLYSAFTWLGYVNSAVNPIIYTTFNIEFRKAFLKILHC
In data set [5] the target is T2, 5-hydroxytryptamine receptor 2A (Homo sapiens, UniProt P28223). As to the kind of experiment: Agonist activity at serotonin 5-HT2A receptor (unknown origin) expressed in HEK293 cells assessed as induction of calcium flux at 10 uM after 60 mins by calcium 4-dye based FLIPR assay relative to control. The data set is classed as functional, cell-based. In general terms: Calcium assays in cells follow changes in intracellular calcium, usually with a dye or a luminescent sensor.
T2 sequence (P28223 whole entry): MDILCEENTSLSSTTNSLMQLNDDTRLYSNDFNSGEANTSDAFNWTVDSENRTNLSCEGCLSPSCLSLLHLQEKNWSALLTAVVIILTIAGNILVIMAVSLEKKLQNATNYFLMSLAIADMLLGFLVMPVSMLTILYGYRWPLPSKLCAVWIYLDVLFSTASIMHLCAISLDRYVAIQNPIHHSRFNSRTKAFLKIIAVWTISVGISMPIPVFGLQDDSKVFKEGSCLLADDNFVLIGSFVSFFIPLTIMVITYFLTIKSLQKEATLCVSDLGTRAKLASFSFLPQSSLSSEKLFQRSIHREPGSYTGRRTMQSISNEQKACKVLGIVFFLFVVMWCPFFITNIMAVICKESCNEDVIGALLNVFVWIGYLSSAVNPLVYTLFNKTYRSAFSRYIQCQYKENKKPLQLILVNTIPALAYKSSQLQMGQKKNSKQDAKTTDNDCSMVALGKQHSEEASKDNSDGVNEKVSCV

Data set [6] concerns the target T3, 5-hydroxytryptamine receptor 6 (Homo sapiens, UniProt P50406). Kind of data set: Agonist activity at serotonin 5-HT6 receptor (unknown origin) expressed in HEK293 cells assessed as induction of calcium flux at 10 uM after 60 mins by calcium 4-dye based FLIPR assay relative to control. The data set is classed as functional, cell-based.
Data set [7] addresses T1, D(2) dopamine receptor. Kind of data set: Antagonist activity at dopamine D2 receptor long isoform (unknown origin) expressed in HEK293 cells assessed as inhibition of dopamine-induced calcium flux at 10 uM after 15 mins by calcium 4-dye based FLIPR assay relative to control. The data set is classed as functional, cell-based.
In data set [8] the test system is Rattus norvegicus. As to the kind of experiment: Antipsychotic activity in po dosed Sprague-Dawley rat assessed as reduction in conditioned avoidance response measured at 90 mins post single dose. The data set is classed as functional. To be noted: 1.5 h.
Data set [9] has as its system Mus musculus. As to the kind of experiment: Induction of weight gain in Kunming mouse at 0.6 to 5.4 mg/kg, po administered for 28 days measured every day during compound dosing. The data set is classed as organism-based. To be noted: in vivo, 672 h.
The test system of data set [10] is Mus musculus. As to the kind of experiment: Induction of serum prolactin levels in Kunming mouse at 0.6 to 5.4 mg/kg, po administered for 28 days measured at 180 mins post last dose by EIA. The data set is classed as organism-based. The note with it: in vivo, 3 h.
The nature of data set [11]: Tmax in Sprague-Dawley rat at 10 mg/kg, po by LC-MS/MS analysis. The note with it: in vivo. The data set is classed as ADME, organism-based.
A short description of data set [12]: AUC (0 to t) in Sprague-Dawley rat at 10 mg/kg, po by LC-MS/MS analysis. The data set is classed as ADME, organism-based. To be noted: in vivo.
Data set [13] has as its system Rattus norvegicus. Kind of data set: AUC (0 to infinity) in Sprague-Dawley rat at 1 mg/kg, iv by LC-MS/MS analysis. The data set is classed as ADME, organism-based. Also noted: dose 1 mg/kg, route intravenous, time infinity. To be noted: in vivo.
For data set [14], the target named is 5-hydroxytryptamine receptor 7 (Rattus norvegicus, UniProt P32305). As to the kind of experiment: Displacement of [3H]-5-CT from 5-HT7 receptor in rat cerebral cortex homogenates after 30 mins by liquid scintillation counting. For orientation: In a radioligand displacement assay an active substance lowers the binding of a labelled ligand.
Chain of 5-hydroxytryptamine receptor 7 (P32305 whole entry): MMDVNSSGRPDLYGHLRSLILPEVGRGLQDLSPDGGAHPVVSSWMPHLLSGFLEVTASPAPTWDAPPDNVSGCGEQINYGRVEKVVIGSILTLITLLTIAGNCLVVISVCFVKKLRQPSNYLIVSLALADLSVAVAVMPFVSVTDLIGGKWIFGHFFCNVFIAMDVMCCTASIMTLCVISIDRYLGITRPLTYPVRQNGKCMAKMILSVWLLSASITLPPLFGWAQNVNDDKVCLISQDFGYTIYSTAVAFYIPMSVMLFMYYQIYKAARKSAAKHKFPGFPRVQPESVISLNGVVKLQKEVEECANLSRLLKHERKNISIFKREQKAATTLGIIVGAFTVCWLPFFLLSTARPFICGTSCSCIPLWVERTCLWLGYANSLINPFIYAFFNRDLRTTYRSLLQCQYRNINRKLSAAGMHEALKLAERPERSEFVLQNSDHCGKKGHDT
The next data set addresses D(1A) dopamine receptor (Homo sapiens, UniProt P21728). Kind of data set: Antagonist activity at human dopamine D1 receptor expressed in HEK293T cells assessed as inhibition of dopamine-induced cAMP accumulation at 10 uM preincubated for 15 mins followed by dopamine induction and measured after 30 mins by HTRF assay. The data set is classed as functional, cell-based. A general note: cAMP levels reflect the balance of adenylyl cyclase and phosphodiesterase activity.

Another data set addresses Histamine H3 receptor (Rattus norvegicus, UniProt Q9QYN8). Kind of data set: Displacement of [3H] methylhistamine from histamine H3 receptor in rat cerebral cotex homogenates after 30 mins by liquid scintillation counting.
In data set [15] the target is Sodium-dependent serotonin transporter (Rattus norvegicus, UniProt P31652). As to the kind of experiment: Displacement of [3H]-paroxetine from SERT in rat cerebral cotex homogenates after 10 mins by liquid scintillation counting.
Chain of Sodium-dependent serotonin transporter (P31652 whole entry): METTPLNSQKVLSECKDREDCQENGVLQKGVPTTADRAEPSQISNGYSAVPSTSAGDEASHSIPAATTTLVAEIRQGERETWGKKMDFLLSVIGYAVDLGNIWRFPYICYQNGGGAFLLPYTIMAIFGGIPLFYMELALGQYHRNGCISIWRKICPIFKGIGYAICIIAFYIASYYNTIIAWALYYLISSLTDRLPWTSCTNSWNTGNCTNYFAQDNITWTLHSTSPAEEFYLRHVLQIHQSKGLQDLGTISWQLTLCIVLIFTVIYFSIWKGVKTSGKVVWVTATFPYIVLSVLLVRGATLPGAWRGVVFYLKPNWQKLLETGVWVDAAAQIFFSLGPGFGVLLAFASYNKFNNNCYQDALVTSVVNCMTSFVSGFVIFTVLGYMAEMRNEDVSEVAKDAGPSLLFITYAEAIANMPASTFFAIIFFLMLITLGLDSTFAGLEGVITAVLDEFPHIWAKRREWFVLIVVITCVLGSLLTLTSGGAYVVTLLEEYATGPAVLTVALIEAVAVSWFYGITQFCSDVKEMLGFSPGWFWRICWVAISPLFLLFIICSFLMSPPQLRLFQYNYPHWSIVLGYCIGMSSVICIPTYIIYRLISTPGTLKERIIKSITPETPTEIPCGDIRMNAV
For another data set, the target named is Glutamate NMDA receptor. As to the kind of experiment: Displacement of [3H] glycine from NMDA receptor in rat hippocampal membrane homogenates after 30 mins by liquid scintillation counting. The data set is classed as cell membranes.
The next data set concerns the target Histamine H1 receptor (Cavia porcellus, UniProt P31389).
In data set [16] the target is T2, 5-hydroxytryptamine receptor 2A.
Data set [17] has as its target T3, 5-hydroxytryptamine receptor 6.
The subject of data set [18] is Mus musculus. The note with it: Kunming.
Description: Antipsychotic activity in po dosed Kunming mouse assessed as reduction in MK-801-induced hyperactivity pretreated for 60 mins followed by MK-801 challenge measured for 90 mins

pIC50, pKi: −log10 of the molar value. Activity calls are given as the source filed them. The calls are words filed in the database; no cut-off is given here.

T3 sequence (P50406 whole entry, canonical isoform): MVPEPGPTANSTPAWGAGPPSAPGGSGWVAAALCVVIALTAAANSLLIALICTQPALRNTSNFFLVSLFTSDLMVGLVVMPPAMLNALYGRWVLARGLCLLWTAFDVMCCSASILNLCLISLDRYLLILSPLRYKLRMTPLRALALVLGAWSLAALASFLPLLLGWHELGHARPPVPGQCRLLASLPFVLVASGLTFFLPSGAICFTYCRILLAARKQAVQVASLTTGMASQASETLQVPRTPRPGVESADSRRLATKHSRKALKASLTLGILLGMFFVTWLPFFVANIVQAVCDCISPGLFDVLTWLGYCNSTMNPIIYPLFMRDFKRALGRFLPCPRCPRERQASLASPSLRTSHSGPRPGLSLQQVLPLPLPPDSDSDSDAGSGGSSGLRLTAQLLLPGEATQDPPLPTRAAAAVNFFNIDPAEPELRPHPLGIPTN
Chain of D(1A) dopamine receptor (P21728 whole entry): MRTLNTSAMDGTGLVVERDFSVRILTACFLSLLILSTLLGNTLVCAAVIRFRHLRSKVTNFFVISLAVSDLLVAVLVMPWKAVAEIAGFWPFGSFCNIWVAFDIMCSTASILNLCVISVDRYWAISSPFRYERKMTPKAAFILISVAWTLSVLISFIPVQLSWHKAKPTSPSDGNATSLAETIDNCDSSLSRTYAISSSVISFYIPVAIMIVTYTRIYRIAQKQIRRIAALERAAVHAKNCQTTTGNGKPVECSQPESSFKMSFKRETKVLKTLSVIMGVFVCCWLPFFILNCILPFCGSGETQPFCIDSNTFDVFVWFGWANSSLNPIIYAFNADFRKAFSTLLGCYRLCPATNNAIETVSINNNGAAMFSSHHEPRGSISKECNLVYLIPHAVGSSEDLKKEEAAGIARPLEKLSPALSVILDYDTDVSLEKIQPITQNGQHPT
Chain of Histamine H1 receptor (P31389 whole entry): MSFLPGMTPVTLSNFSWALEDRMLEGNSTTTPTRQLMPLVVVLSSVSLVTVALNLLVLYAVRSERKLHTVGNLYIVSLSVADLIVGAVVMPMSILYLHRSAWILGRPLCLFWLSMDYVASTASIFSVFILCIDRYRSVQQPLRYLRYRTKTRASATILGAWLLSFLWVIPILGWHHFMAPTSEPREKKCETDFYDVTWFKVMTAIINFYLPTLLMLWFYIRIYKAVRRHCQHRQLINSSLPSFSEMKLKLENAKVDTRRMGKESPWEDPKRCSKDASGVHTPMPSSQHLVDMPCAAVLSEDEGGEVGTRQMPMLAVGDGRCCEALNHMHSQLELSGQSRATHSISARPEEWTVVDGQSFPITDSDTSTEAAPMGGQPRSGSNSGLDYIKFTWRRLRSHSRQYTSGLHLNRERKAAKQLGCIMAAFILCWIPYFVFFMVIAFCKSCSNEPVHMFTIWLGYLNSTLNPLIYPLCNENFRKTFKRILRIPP
Chain of Histamine H3 receptor (Q9QYN8 whole entry): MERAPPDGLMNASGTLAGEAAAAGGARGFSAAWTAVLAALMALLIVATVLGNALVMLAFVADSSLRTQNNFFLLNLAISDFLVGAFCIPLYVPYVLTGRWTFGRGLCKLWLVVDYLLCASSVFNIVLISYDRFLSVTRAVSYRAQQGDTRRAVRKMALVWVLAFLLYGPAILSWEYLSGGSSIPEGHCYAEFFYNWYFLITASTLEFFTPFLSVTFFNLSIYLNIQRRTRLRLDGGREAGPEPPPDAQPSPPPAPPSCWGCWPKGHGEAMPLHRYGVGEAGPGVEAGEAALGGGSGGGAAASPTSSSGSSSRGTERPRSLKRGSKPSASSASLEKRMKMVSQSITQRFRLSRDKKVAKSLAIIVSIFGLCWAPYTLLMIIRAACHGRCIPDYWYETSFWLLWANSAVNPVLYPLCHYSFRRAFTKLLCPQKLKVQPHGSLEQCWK
Description for Histamine H1 receptor: Displacement of [3H]-mepyramine from histamine H1 receptor in guinea pig cerebellum homogenates incubated for 60 mins by liquid scintillation counting

`O=C(CCCCN1CCC(c2noc3cc(F)ccc23)CC1)c1cc2c3c(c1)CCN3C(=O)CC2` gave a half-life in data set [1] of 2.02 h. The outcome in the data set with Rattus norvegicus [2] was inactive. In addition, in data set [3], the LD50 at 24 h was above 2000 mg/kg. The Activity at D(2) dopamine receptor [4] was 9.8%; in data set [5], 0.6%; in data set [6], 6%; in the data set on Mus musculus [9] it was “Non-Toxic”; in the data set on Mus musculus [10] it was “Non-Toxic”; in the data set on Mus musculus [18] it was “Dose-dependent effect”. The inhibition is 93.3% at D(2) dopamine receptor [7] and above 90% on D(1A) dopamine receptor. The ED50 in the data set with Rattus norvegicus [8] is 1.46 mg/kg. The Tmax in data set [11] is 1 h. In addition, in data set [12], the AUC(0-t) worked out at 18500 ng·h/mL. This molecule also displayed an AUC with Rattus norvegicus [13] of 3151.2 ng·h/mL. Also, the pKi in [14] is 6.65; on Histamine H3 receptor, below 6.00; in data set [15], below 6.00; on Glutamate NMDA receptor it was below 6.00; at Histamine H1 receptor it was 6.20. The pIC50 was 6.59 in data set [16] and 6.75 in data set [17].

A word on the half-life: it is how long it takes for the measured level to halve. Read a high half-life as slow decline. As a reminder, the LD50 is the dose expected to kill half of the subjects tested. The inhibition is the relative decrease from the control value, in per cent. For orientation: ED50 means the midpoint of the dose-response relation. For orientation: Tmax means the time from dosing to the highest level. Broadly, the AUC(0-t) is the area under the concentration-time curve up to a stated or last time point. Low readings indicate low exposure, high ones high exposure. The AUC is the area under the concentration-time curve, a measure of exposure. Lower therefore signals less exposure. One may read the pKi as the Ki on a negative log10 scale, so that one unit is a factor of ten. Higher therefore signals a low Ki. By pIC50 is commonly meant the negative decadic logarithm of the IC50, by convention in mol/L.
